Experiments:
[1] = Cytotoxicity against human ES2 cells after 48 hrs by MTT assay; format: functional, cell-based; conditions: ES-2, 48 h
HepG2 [2] = experiment: Cytotoxicity against human HepG2 cells after 48 hrs by MTT assay; format: functional, cell-based; conditions: HepG2, 48 h
U2OS [3] = experiment: Cytotoxicity against human U2OS cells after 48 hrs by MTT assay; format: functional, cell-based
A549 [4] = experiment: Cytotoxicity against human A549 cells after 48 hrs by MTT assay; format: functional, cell-based; conditions: A549, 48 h
HepG2 [5] = experiment: Cytotoxicity against human HepG2 cells assessed as cell viability at 25 uM after 48 hrs by MTT assay; format: functional; conditions: HepG2, 48 h, read-out: Activity
A549 [6] = experiment: Cytotoxicity against human A549 cells assessed as cell viability at 50 uM after 48 hrs by MTT assay; format: functional; conditions: A549, 48 h, read-out: Activity
HepG2 [7] = experiment: Cytotoxicity against human HepG2 cells assessed as cell viability at 50 uM after 48 hrs by MTT assay; format: functional; conditions: HepG2, 48 h, read-out: Activity
U2OS [8] = experiment: Cytotoxicity against human U2OS cells assessed as cell viability at 25 uM after 48 hrs by MTT assay; format: functional; conditions: read-out: Activity
U2OS [9] = experiment: Cytotoxicity against human U2OS cells assessed as cell viability at 50 uM after 48 hrs by MTT assay; format: functional; conditions: read-out: Activity
[10] = Cytotoxicity against human ES2 cells assessed as cell viability at 50 uM after 48 hrs by MTT assay; format: functional; conditions: ES-2, 48 h, read-out: Activity
A549 [11] = experiment: Cytotoxicity against human A549 cells assessed as cell viability at 100 uM after 48 hrs by MTT assay; format: functional; conditions: A549, 48 h, read-out: Activity
[12] = Cytotoxicity against human ES2 cells assessed as cell viability at 25 uM after 48 hrs by MTT assay; format: functional; conditions: ES-2, 48 h, read-out: Activity

SMILES: C=CCCCCCCCCC(=O)O[C@H]1CC[C@]2(C)[C@H]3C[C@@H](O)[C@@H]4[C@@H]([C@@]5(C)CCCC(C)(C)O5)CC[C@@]4(C)[C@]3(C)CC[C@H]2C1(C)C
- IC50 [1]: 19.4 µM
- IC50 (HepG2 [2]): > 50 µM
- IC50 (U2OS [3]): 31.6 µM
- IC50 (A549 [4]): > 50 µM

SMILES: CC(C)=CCC[C@@](C)(O)[C@H]1CC[C@]2(C)[C@@H]1[C@H](O)C[C@@H]1[C@@]3(C)CC[C@H](O[C@@H]4O[C@H](CO)[C@@H](O)[C@H](O)[C@H]4O[C@@H]4O[C@H](CO)[C@@H](O)[C@H](O)[C@H]4O)C(C)(C)[C@@H]3CC[C@]12C
- IC50 [1]: > 100 µM
- IC50 (HepG2 [2]): > 100 µM
- viability at 25 µM (HepG2 [5]): 81.3%
- viability at 50 µM (A549 [6]): 75.6%
- viability at 50 µM (HepG2 [7]): 76.2%
- IC50 (U2OS [3]): > 100 µM
- viability at 25 µM (U2OS [8]): 72.2%
- viability at 50 µM (U2OS [9]): 81.3%
- viability at 50 µM [10]: 74.5%
- viability at 100 µM (A549 [11]): 71.1%
- IC50 (A549 [4]): > 100 µM
- viability at 25 µM [12]: 82%

SMILES: CC1(C)CCC[C@](C)([C@H]2CC[C@]3(C)[C@@H]2[C@H](O)C[C@@H]2[C@@]4(C)CC[C@H](OC(=O)C5CCCN5)C(C)(C)[C@@H]4CC[C@]23C)O1 (stereo partly specified)
- IC50 [1]: 16.7 µM
- IC50 (HepG2 [2]): 8.91 µM
- viability at 25 µM (HepG2 [5]): 5.72%
- viability at 50 µM (A549 [6]): 19.5%
- viability at 50 µM (HepG2 [7]): 6.39%
- IC50 (U2OS [3]): 14.4 µM
- viability at 25 µM (U2OS [8]): 12.4%
- viability at 50 µM (U2OS [9]): 8.72%
- viability at 50 µM [10]: 6.04%
- viability at 100 µM (A549 [11]): 14.1%
- IC50 (A549 [4]): 7.63 µM
- viability at 25 µM [12]: 10.4%

SMILES: CC(C)C(N)C(=O)O[C@H]1CC[C@]2(C)[C@H]3C[C@@H](O)[C@@H]4[C@@H]([C@@]5(C)CCCC(C)(C)O5)CC[C@@]4(C)[C@]3(C)CC[C@H]2C1(C)C (stereo partly specified)
- IC50 [1]: 16.2 µM
- IC50 (HepG2 [2]): 9.29 µM
- viability at 25 µM (HepG2 [5]): 26.4%
- viability at 50 µM (A549 [6]): 21.2%
- viability at 50 µM (HepG2 [7]): 11.7%
- IC50 (U2OS [3]): 17.3 µM
- viability at 25 µM (U2OS [8]): 16.4%
- viability at 50 µM (U2OS [9]): 13.7%
- viability at 50 µM [10]: 6.47%
- viability at 100 µM (A549 [11]): 15.4%
- IC50 (A549 [4]): 31.8 µM
- viability at 25 µM [12]: 14.6%

SMILES: CC1(C)CCC[C@](C)([C@H]2CC[C@]3(C)[C@@H]2[C@H](O)C[C@@H]2[C@@]4(C)CC[C@H](O)C(C)(C)[C@@H]4CC[C@]23C)O1 [PANAXADIOL]
- IC50 [1]: 5.61 µM
- IC50 (HepG2 [2]): 37.9 µM
- viability at 25 µM (HepG2 [5]): 69%
- viability at 50 µM (A549 [6]): 36%
- viability at 50 µM (HepG2 [7]): 37.7%
- IC50 (U2OS [3]): 26.8 µM
- viability at 25 µM (U2OS [8]): 53.4%
- viability at 50 µM (U2OS [9]): 25.7%
- viability at 50 µM [10]: 12.4%
- viability at 100 µM (A549 [11]): 24.5%
- IC50 (A549 [4]): 43.1 µM
- viability at 25 µM [12]: 18.8%

SMILES: CCCCCCCC/C=C/CCCCCCCC(=O)O[C@H]1CC[C@]2(C)[C@H]3C[C@@H](O)[C@@H]4[C@@H]([C@@]5(C)CCCC(C)(C)O5)CC[C@@]4(C)[C@]3(C)CC[C@H]2C1(C)C
- IC50 [1]: 20.9 µM
- IC50 (HepG2 [2]): > 50 µM
- IC50 (U2OS [3]): 16.6 µM
- IC50 (A549 [4]): > 50 µM

SMILES: CC/C=C(\C)C(=O)O[C@H]1CC[C@]2(C)[C@H]3C[C@@H](O)[C@@H]4[C@@H]([C@@]5(C)CCCC(C)(C)O5)CC[C@@]4(C)[C@]3(C)CC[C@H]2C1(C)C
- IC50 [1]: 24.2 µM
- IC50 (HepG2 [2]): > 50 µM
- IC50 (U2OS [3]): 38 µM
- IC50 (A549 [4]): > 50 µM

SMILES: C/C=C(\C)C(=O)O[C@H]1CC[C@]2(C)[C@H]3C[C@@H](O)[C@@H]4[C@@H]([C@@]5(C)CCCC(C)(C)O5)CC[C@@]4(C)[C@]3(C)CC[C@H]2C1(C)C
- IC50 [1]: 4.26 µM
- IC50 (HepG2 [2]): > 50 µM
- IC50 (U2OS [3]): 14.7 µM
- IC50 (A549 [4]): > 50 µM

SMILES: CC1(C)CCC[C@](C)([C@H]2CC[C@]3(C)[C@@H]2[C@H](O)C[C@@H]2[C@@]4(C)CC[C@H](OC(=O)CN)C(C)(C)[C@@H]4CC[C@]23C)O1
- IC50 [1]: 9.9 µM
- IC50 (HepG2 [2]): 11.3 µM
- viability at 25 µM (HepG2 [5]): 10.3%
- viability at 50 µM (A549 [6]): 18.7%
- viability at 50 µM (HepG2 [7]): 10%
- IC50 (U2OS [3]): 13.7 µM
- viability at 25 µM (U2OS [8]): 13%
- viability at 50 µM (U2OS [9]): 12%
- viability at 50 µM [10]: 6.66%
- viability at 100 µM (A549 [11]): 13.5%
- IC50 (A549 [4]): 14 µM
- viability at 25 µM [12]: 7.51%

SMILES: CCCCC/C=C/C/C=C/CCCCCCCC(=O)O[C@H]1CC[C@]2(C)[C@H]3C[C@@H](O)[C@@H]4[C@@H]([C@@]5(C)CCCC(C)(C)O5)CC[C@@]4(C)[C@]3(C)CC[C@H]2C1(C)C
- IC50 [1]: 17.9 µM
- IC50 (HepG2 [2]): > 50 µM
- IC50 (U2OS [3]): 32.1 µM
- IC50 (A549 [4]): > 50 µM

SMILES: CSCCC(N)C(=O)O[C@H]1CC[C@]2(C)[C@H]3C[C@@H](O)[C@@H]4[C@@H]([C@@]5(C)CCCC(C)(C)O5)CC[C@@]4(C)[C@]3(C)CC[C@H]2C1(C)C (stereo partly specified)
- IC50 [1]: 13.1 µM
- IC50 (HepG2 [2]): 11.8 µM
- viability at 25 µM (HepG2 [5]): 28.4%
- viability at 50 µM (A549 [6]): 21.6%
- viability at 50 µM (HepG2 [7]): 8.56%
- IC50 (U2OS [3]): 16.8 µM
- viability at 25 µM (U2OS [8]): 18.4%
- viability at 50 µM (U2OS [9]): 11.6%
- viability at 50 µM [10]: 6.4%
- viability at 100 µM (A549 [11]): 12.7%
- IC50 (A549 [4]): 22.4 µM
- viability at 25 µM [12]: 13%

SMILES: CC1(C)CCC[C@](C)([C@H]2CC[C@]3(C)[C@@H]2[C@H](O)C[C@@H]2[C@@]4(C)CC[C@H](OC(=O)C(N)Cc5ccccc5)C(C)(C)[C@@H]4CC[C@]23C)O1 (stereo partly specified)
- IC50 [1]: 15.2 µM
- IC50 (HepG2 [2]): 8.82 µM
- viability at 25 µM (HepG2 [5]): 9.95%
- viability at 50 µM (A549 [6]): 20.5%
- viability at 50 µM (HepG2 [7]): 8.82%
- IC50 (U2OS [3]): 16.4 µM
- viability at 25 µM (U2OS [8]): 15%
- viability at 50 µM (U2OS [9]): 10.9%
- viability at 50 µM [10]: 8.58%
- viability at 100 µM (A549 [11]): 15.2%
- IC50 (A549 [4]): 18.6 µM
- viability at 25 µM [12]: 10.3%

SMILES: C=CCCC(=O)O[C@H]1CC[C@]2(C)[C@H]3C[C@@H](O)[C@@H]4[C@@H]([C@@]5(C)CCCC(C)(C)O5)CC[C@@]4(C)[C@]3(C)CC[C@H]2C1(C)C
- IC50 [1]: 11.8 µM
- IC50 (HepG2 [2]): > 50 µM
- IC50 (U2OS [3]): 39 µM
- IC50 (A549 [4]): > 50 µM

SMILES: C=CC(=O)O[C@H]1CC[C@]2(C)[C@H]3C[C@@H](O)[C@@H]4[C@@H]([C@@]5(C)CCCC(C)(C)O5)CC[C@@]4(C)[C@]3(C)CC[C@H]2C1(C)C
- IC50 [1]: 8.02 µM
- IC50 (HepG2 [2]): > 50 µM
- IC50 (U2OS [3]): 20.8 µM
- IC50 (A549 [4]): > 50 µM

SMILES: C/C=C/C=C/C(=O)O[C@H]1CC[C@]2(C)[C@H]3C[C@@H](O)[C@@H]4[C@@H]([C@@]5(C)CCCC(C)(C)O5)CC[C@@]4(C)[C@]3(C)CC[C@H]2C1(C)C
- IC50 [1]: 13.7 µM
- IC50 (HepG2 [2]): > 50 µM
- IC50 (U2OS [3]): 43.3 µM
- IC50 (A549 [4]): > 50 µM

SMILES: CC(C)CC(N)C(=O)O[C@H]1CC[C@]2(C)[C@H]3C[C@@H](O)[C@@H]4[C@@H]([C@@]5(C)CCCC(C)(C)O5)CC[C@@]4(C)[C@]3(C)CC[C@H]2C1(C)C (stereo partly specified)
- IC50 [1]: 17.9 µM
- IC50 (HepG2 [2]): 5.03 µM
- viability at 25 µM (HepG2 [5]): 28.1%
- viability at 50 µM (A549 [6]): 18.1%
- viability at 50 µM (HepG2 [7]): 15.3%
- IC50 (U2OS [3]): 18 µM
- viability at 25 µM (U2OS [8]): 18.1%
- viability at 50 µM (U2OS [9]): 14.3%
- viability at 50 µM [10]: 6.91%
- viability at 100 µM (A549 [11]): 10.5%
- IC50 (A549 [4]): 24.9 µM
- viability at 25 µM [12]: 10.8%

SMILES: CCC/C=C/C(=O)O[C@H]1CC[C@]2(C)[C@H]3C[C@@H](O)[C@@H]4[C@@H]([C@@]5(C)CCCC(C)(C)O5)CC[C@@]4(C)[C@]3(C)CC[C@H]2C1(C)C
- IC50 [1]: 13.7 µM
- IC50 (HepG2 [2]): > 50 µM
- IC50 (U2OS [3]): 43.9 µM
- IC50 (A549 [4]): > 50 µM

SMILES: CCCCCCCC/C=C/CCCCCCCCCCCC(=O)O[C@H]1CC[C@]2(C)[C@H]3C[C@@H](O)[C@@H]4[C@@H]([C@@]5(C)CCCC(C)(C)O5)CC[C@@]4(C)[C@]3(C)CC[C@H]2C1(C)C
- IC50 [1]: 14.8 µM
- IC50 (HepG2 [2]): > 50 µM
- IC50 (U2OS [3]): 40.5 µM
- IC50 (A549 [4]): > 50 µM

— ChEMBL document CHEMBL1781923, “Synthesis and anti-tumor evaluation of panaxadiol derivatives” (Eur J Med Chem, 2011)
